Data as given in the Kinase Knowledgebase extract (Sharma et al. 2016).

These molecules were tested against MAPK14 (human) (UniProt Q16539) (assay: Inhibition of LPS Stimulated TNF-alpha Production in THP-1 Cells). Conditions: thp1.
Chain of MAPK14 (human) (Q16539 whole entry, looked up): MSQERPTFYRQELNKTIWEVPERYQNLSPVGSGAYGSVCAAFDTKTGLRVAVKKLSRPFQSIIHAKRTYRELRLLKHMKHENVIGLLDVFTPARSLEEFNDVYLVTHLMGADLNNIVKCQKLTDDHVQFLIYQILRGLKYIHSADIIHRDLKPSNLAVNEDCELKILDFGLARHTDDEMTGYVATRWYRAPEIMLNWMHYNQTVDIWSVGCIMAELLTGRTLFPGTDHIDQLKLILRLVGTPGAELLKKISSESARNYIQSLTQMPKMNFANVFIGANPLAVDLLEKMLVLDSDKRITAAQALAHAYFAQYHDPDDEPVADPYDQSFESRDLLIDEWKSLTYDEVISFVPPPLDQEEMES

Row | SMILES | IC50
1 | CCc1nc(-c2cccc(C)c2)c(-c2ccnc(NC(=O)c3ccsc3)c2)s1 | 5.9 nM
2 | Cc1cc(C)cc(-c2nc(N)sc2-c2ccnc(NC(=O)c3ccccc3)c2)c1 | 20 nM
3 | CCCc1nc(-c2cccc(C)c2)c(-c2ccnc(N)c2)s1 | 2 nM
4 | Cc1cccc(-c2nc(N(C)C(=O)c3ccc(C)nc3)sc2-c2ccnc(NC3CCCC3)c2)c1 | 82 nM
5 | CCc1nc(-c2ccc(Cl)cc2)c(-c2ccnc(NC(=O)c3ccccc3)c2)s1 | 15 nM
6 | CCc1nc(-c2cccc(Cl)c2)c(-c2ccnc(NC(C)=O)c2)s1 | 120 nM
7 | CNc1nc(-c2ccc(Cl)cc2)c(-c2ccncc2)s1 | 180 nM
8 | COc1ccc(-c2nc(NC(=O)c3cccnc3)sc2-c2ccnc(NC(=O)c3cccnc3)c2)cc1 | 26 nM
9 | Cc1cccc(-c2nc(N)sc2-c2ccncc2)c1 | 46 nM
10 | CCc1nc(-c2cccc(Cl)c2)c(-c2ccnc(N[C@@H](C)c3ccccc3)c2)s1 | 57 nM
11 | COc1ccc(-c2nc(N)sc2-c2ccnc(NC(=O)c3ccccc3)c2)cc1 | 14 nM
12 | CNc1nc(-c2ccc(OC)cc2)c(-c2ccncc2)s1 | 140 nM
13 | CCc1nc(-c2cccc(Cl)c2)c(-c2ccnc(NC3CCCCC3)c2)s1 | 55 nM
14 | Cc1cc(C)cc(-c2nc(N)sc2-c2ccnc(NCc3ccccc3)c2)c1 | 140 nM
15 | CCC(=O)Nc1cc(-c2sc(-c3ccc(S(C)(=O)=O)cc3)nc2-c2cccc(Cl)c2)ccn1 | 21 nM
